Columns and labels:
human JAK2 = human JAK2 (Homo sapiens (Human), UniProt O60674); assay: In vitro JAK kinase assay (Example J), JAK2; type: biochemical; settings: ratio of IC50s, Assay J at 1 mM ATP
human JAK1 = human JAK1 (Homo sapiens, UniProt P23458); assay: In vitro JAK kinase assay (Example J), JAK1; type: biochemical; settings: Assay J at 1 mM ATP

human JAK2, sequence (O60674 828-1132): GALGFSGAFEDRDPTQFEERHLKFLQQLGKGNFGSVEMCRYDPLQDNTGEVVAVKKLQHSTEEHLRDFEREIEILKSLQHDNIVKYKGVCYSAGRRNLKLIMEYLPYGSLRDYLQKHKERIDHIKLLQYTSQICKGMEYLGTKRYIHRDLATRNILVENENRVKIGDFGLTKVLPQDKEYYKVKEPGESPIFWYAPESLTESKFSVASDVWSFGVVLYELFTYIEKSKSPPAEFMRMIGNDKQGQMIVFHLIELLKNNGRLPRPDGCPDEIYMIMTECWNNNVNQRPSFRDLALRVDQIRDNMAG

| IC50 (human JAK1) | SMILES | JAK2/JAK1 (human JAK2) |
| --- | --- | --- |
| – | C[C@@H](O)c1nc2cnc3ccsc3c2n1[C@H]1CC[C@H](CC#N)OC1 [#1, ((2R,5S)-5-{2-[(1R)-1-Hydroxyethyl]-1H-imidazo[4,5-d]thieno[3,2-b]pyridin-1-yl}tetrahydro-2H-pyran-2-yl)acetonitrile] | >10 |
| < 10 nM | N#CCC(CN1CCN(C(=O)c2ccc(C#N)cc2F)CC1)n1ccc(-c2ncnc3[nH]ccc23)c1 (stereo not drawn) [Example 6, 4-[(4-{3-cyano-2-[3-(7H-pyrrolo[2,3-d]pyrimidin-4-yl)-1H-pyrrol-1-yl]propyl}piperazin-1-yl)carbonyl]-3-fluorobenzonitrile] | >10 |
